Experimental data taken from paper PMC3388080 (PLoS ONE, 2012).
Marks after values point to notes of the source that are not given here.

Test system: male Sprague-Dawley rats
Test: EEG/EMG/Tcore/LMA telemetry sleep study 3 (almorexant vs ZOL)
Type: in vivo, rat
Details: for REM:NR ratio: 6 h after dosing
Description: All rodent electroencephalograph (EEG) studies were performed at SRI International. Three groups of eight male Sprague-Dawley rats (300±25 g; Charles River, Wilmington, MA) were implanted with chronic recording devices (F40-EET, Data Sciences Inc., St Paul, MN) for continuous recordings of EEG, electromyograph (EMG), core body temperature (Tcore), and LMA via telemetry as previously described. Data recording and scoring were performed as previously reported (see also Supplemental Material and Methods). The EEG and EMG data were scored in 10 sec epochs for waking (W), rapid eye movement sleep (REM), and non-REM sleep (NR). Tcore and LMA (counts per minute) were analyzed as hourly means. Data from the EEG studies are reported in hourly means such that the hourly time ZT1 refers to the hour between time points ZT0 and ZT1.
For each of the three separate studies, a repeated measures counter-balanced design was employed in which each rat received five separate dosings. […] All dosings were administered ip in a volume of 2 ml/kg. A minimum of 3 d elapsed between doses. Dosing occurred during the middle of the rats’ normal active period at the start of ZT19 and was typically completed within 10 min. Animals were continuously recorded for 6 h prior to dosing and for 18 h following dosing.

[1] = 6 h Average, almorexant 10 mg/kg ip
[2] = 6 h Total, almorexant 10 mg/kg ip

CNC(=O)[C@@H](c1ccccc1)N1CCc2cc(OC)c(OC)cc2[C@@H]1CCc1ccc(C(F)(F)F)cc1 [almorexant, (2R)-2-[(1S)-6,7-Dimethoxy-1-[2-(4-trifluoromethyl-phenyl)-ethyl]-3,4-dihydro-1H-isoquinolin-2-yl]-N-methyl-2-phenyl-acetamide]
cumulative REM (in words) (30 mg/kg ip, first 2 h): Cumulative REM also increased | cumulative REM (in words) (100 mg/kg ip, 6 h period): Cumulative REM also increased | numbers of W and NR bouts (in words) (100 mg/kg ip, ZT19, ZT20, ZT22-ZT24): increased numbers of W and NR bouts | W bout duration (in words) (100 mg/kg ip, ZT22, vs vehicle): decreased | number of REM bouts (in words) (100 mg/kg ip, ZT22-ZT24): increased | LMA (in words) (100 mg/kg ip, across 6 h, vs vehicle): LMA was decreased | NR latency (in words) (30 and 100 mg/kg ip at ZT19, vs vehicle): reduced NR latency | cumulative NR (in words) (30 and 100 mg/kg ip, 2, 4 and 6 h): increased cumulative NR | NR bout duration (6 h Average, 30 mg/kg ip): 1.25 ±0.09^+ | REM bout duration (6 h Average, 30 mg/kg ip): 1.32 ± 0.10 | W bout duration (6 h Average, 30 mg/kg ip): 2.53 ± 0.41 | NR bout duration (6 h Average, 100 mg/kg ip): 1.20 ± 0.08^+ | REM bout duration (6 h Average, 100 mg/kg ip): 1.20 ± 0.12 | W bout duration (6 h Average, 100 mg/kg ip): 1.59 ± 0.20*^+ | NR bout duration [1]: 1.22 ± 0.08^+ | REM bout duration [1]: 1.11 ± 0.13 | W bout duration [1]: 4.37 ± 1.09 | Number of NR bouts (6 h Total, 30 mg/kg ip): 103.0 ± 9.60*^+ | Number of REM bouts (6 h Total, 30 mg/kg ip): 20.38 ± 3.12^+ | Number of NR bouts (6 h Total, 100 mg/kg ip): 127.0 ± 6.02*^+ | Number of REM bouts (6 h Total, 100 mg/kg ip): 27.75 ± 3.26*^+ | Number of W bouts (6 h Total, 100 mg/kg ip): 109.38 ±7.91*^+ | Number of NR bouts [2]: 82.00 ±9.10 | Number of REM bouts [2]: 18.00 ± 3.80^+ | Number of W bouts [2]: 67.50 ± 8.89 | REM:NR ratio (10 mg/kg ip (almorexant)): 0.19±0.026^+ | REM:NR ratio (30 mg/kg ip): 0.20±0.022^+ | REM:NR ratio (100 mg/kg ip): 0.21±0.021^+ | NR during the subsequent light period (in words) (ZT1 and ZT6, 30 mg/kg ip, vs vehicle): NR increased | NR bout duration (ZT19, 30 mg/kg ip): 1.33 ± 0.14^+ | Number of NR bouts (ZT19, 30 mg/kg ip): 15.00 ± 1.83 | Number of REM bouts (ZT19, 30 mg/kg ip): 2.63 ± 0.50*^+ | Number of W bouts (ZT19, 30 mg/kg ip): 10.38 ± 1.53 | REM bout duration (ZT19, 30 mg/kg ip): 1.52 ± 0.26*^+ | W bout duration (ZT19, 30 mg/kg ip): 4.69 ± 1.87 | NR bout duration (ZT19, 100 mg/kg ip): 1.50 ± 0.14*^+ | Number of NR bouts (ZT19, 100 mg/kg ip): 14.00 ± 1.25 | Number of REM bouts (ZT19, 100 mg/kg ip): 1.25 ± 0.49 | Number of W bouts (ZT19, 100 mg/kg ip): 12.25 ± 1.74 | REM bout duration (ZT19, 100 mg/kg ip): 1.44 ± 0.38*^+ | W bout duration (ZT19, 100 mg/kg ip): 3.31 ± 0.65 | NR bout duration (ZT19, almorexant 10 mg/kg ip): 1.27 ± 0.15^+ | Number of NR bouts (ZT19, almorexant 10 mg/kg ip): 8.63 ± 1.82 | Number of REM bouts (ZT19, almorexant 10 mg/kg ip): 1.75 ± 0.53 | Number of W bouts (ZT19, almorexant 10 mg/kg ip): 6.63 ± 1.50 | REM bout duration (ZT19, almorexant 10 mg/kg ip): 0.76 ± 0.19*^+ | W bout duration (ZT19, almorexant 10 mg/kg ip): 9.90 ± 3.21 | NR bout duration (ZT20, 30 mg/kg ip): 1.34 ± 0.08^+ | Number of NR bouts (ZT20, 30 mg/kg ip): 19.75 ± 2.25 | Number of REM bouts (ZT20, 30 mg/kg ip): 4.38 ± 1.08^+ | Number of W bouts (ZT20, 30 mg/kg ip): 16.38 ± 1.68^+ | REM bout duration (ZT20, 30 mg/kg ip): 1.37 ± 0.05^+ | W bout duration (ZT20, 30 mg/kg ip): 1.96 ± 0.75 | NR bout duration (ZT20, 100 mg/kg ip): 1.37 ± 0.12^+ | Number of NR bouts (ZT20, 100 mg/kg ip): 22.25 ± 2.36 | Number of REM bouts (ZT20, 100 mg/kg ip): 3.00 ± 1.20 | Number of W bouts (ZT20, 100 mg/kg ip): 18.38 ± 1.40*^+ | REM bout duration (ZT20, 100 mg/kg ip): 1.08 ± 0.15^+ | W bout duration (ZT20, 100 mg/kg ip): 1.41 ± 0.13^+ | NR bout duration (ZT20, almorexant 10 mg/kg ip): 1.31 ± 0.09^+ | Number of NR bouts (ZT20, almorexant 10 mg/kg ip): 19.38 ± 2.38 | Number of REM bouts (ZT20, almorexant 10 mg/kg ip): 4.13 ± 0.97^+ | Number of W bouts (ZT20, almorexant 10 mg/kg ip): 14.88 ± 2.05^+ | REM bout duration (ZT20, almorexant 10 mg/kg ip): 1.16 ± 0.17^+ | W bout duration (ZT20, almorexant 10 mg/kg ip): 2.37 ± 0.70 | NR bout duration (ZT21, 30 mg/kg ip): 1.27 ± 0.09^+ | Number of NR bouts (ZT21, 30 mg/kg ip): 20.75 ± 1.39 | Number of REM bouts (ZT21, 30 mg/kg ip): 5.25 ± 1.16^+ | Number of W bouts (ZT21, 30 mg/kg ip): 18.38 ± 1.39^+ | REM bout duration (ZT21, 30 mg/kg ip): 1.26 ± 0.14 | W bout duration (ZT21, 30 mg/kg ip): 1.43 ± 0.30^+ | NR bout duration (ZT21, 100 mg/kg ip): 1.31 ± 0.15^+ | Number of NR bouts (ZT21, 100 mg/kg ip): 23.75 ± 1.47 | Number of REM bouts (ZT21, 100 mg/kg ip): 6.75 ± 1.06^+ | Number of W bouts (ZT21, 100 mg/kg ip): 20.88 ± 2.21^+ | REM bout duration (ZT21, 100 mg/kg ip): 1.28 ± 0.18 | W bout duration (ZT21, 100 mg/kg ip): 0.93 ± 0.15^+ | NR bout duration (ZT21, almorexant 10 mg/kg ip): 1.17 ± 0.16^+ | Number of NR bouts (ZT21, almorexant 10 mg/kg ip): 15.88 ± 2.00 | Number of REM bouts (ZT21, almorexant 10 mg/kg ip): 4.75 ± 1.13^+ | Number of W bouts (ZT21, almorexant 10 mg/kg ip): 13.50 ± 1.73 | REM bout duration (ZT21, almorexant 10 mg/kg ip): 1.40 ± 0.16 | W bout duration (ZT21, almorexant 10 mg/kg ip): 3.03 ± 0.90 | NR bout duration (ZT22, 30 mg/kg ip): 1.04 ± 0.11^+ | Number of NR bouts (ZT22, 30 mg/kg ip): 17.25 ± 2.58 | Number of REM bouts (ZT22, 30 mg/kg ip): 2.88 ± 0.74 | Number of W bouts (ZT22, 30 mg/kg ip): 14.88 ± 1.99 | REM bout duration (ZT22, 30 mg/kg ip): 1.26 ± 0.17 | W bout duration (ZT22, 30 mg/kg ip): 3.07 ± 0.83 | NR bout duration (ZT22, 100 mg/kg ip): 1.12 ± 0.15 | Number of NR bouts (ZT22, 100 mg/kg ip): 23.88 ± 1.34 | Number of REM bouts (ZT22, 100 mg/kg ip): 7.38 ± 1.49*^+ | Number of W bouts (ZT22, 100 mg/kg ip): 20.00 ± 0.89*^+ | REM bout duration (ZT22, 100 mg/kg ip): 1.07 ± 0.18 | W bout duration (ZT22, 100 mg/kg ip): 1.13 ± 0.15^+ | NR bout duration (ZT22, almorexant 10 mg/kg ip): 1.07 ± 0.19^+ | Number of NR bouts (ZT22, almorexant 10 mg/kg ip): 14.38 ± 2.58 | Number of REM bouts (ZT22, almorexant 10 mg/kg ip): 2.88 ± 0.81 | Number of W bouts (ZT22, almorexant 10 mg/kg ip): 13.00 ± 2.92 | REM bout duration (ZT22, almorexant 10 mg/kg ip): 1.05 ± 0.36 | W bout duration (ZT22, almorexant 10 mg/kg ip): 4.74 ± 1.57 | NR bout duration (ZT23, 30 mg/kg ip): 1.03 ± 0.12 | Number of NR bouts (ZT23, 30 mg/kg ip): 16.63 ± 2.88 | Number of REM bouts (ZT23, 30 mg/kg ip): 2.88 ± 0.93 | Number of W bouts (ZT23, 30 mg/kg ip): 15.13 ± 2.71 | REM bout duration (ZT23, 30 mg/kg ip): 0.91 ± 0.19 | W bout duration (ZT23, 30 mg/kg ip): 5.53 ± 3.36 | NR bout duration (ZT23, 100 mg/kg ip): 0.90 ± 0.07 | Number of NR bouts (ZT23, 100 mg/kg ip): 23.13 ± 2.61 | Number of REM bouts (ZT23, 100 mg/kg ip): 4.00 ± 0.82 | Number of W bouts (ZT23, 100 mg/kg ip): 21.00 ± 3.02 | REM bout duration (ZT23, 100 mg/kg ip): 1.16 ± 0.12 | W bout duration (ZT23, 100 mg/kg ip): 2.15 ± 0.68 | NR bout duration (ZT23, almorexant 10 mg/kg ip): 1.11 ± 0.19 | Number of NR bouts (ZT23, almorexant 10 mg/kg ip): 8.00 ± 1.68 | Number of REM bouts (ZT23, almorexant 10 mg/kg ip): 1.25 ± 0.65 | Number of W bouts (ZT23, almorexant 10 mg/kg ip): 6.63 ± 1.88 | REM bout duration (ZT23, almorexant 10 mg/kg ip): 0.61 ± 0.17 | W bout duration (ZT23, almorexant 10 mg/kg ip): 12.59 ± 3.87 | NR bout duration (ZT24, 30 mg/kg ip): 1.50 ± 0.24 | Number of NR bouts (ZT24, 30 mg/kg ip): 19.88 ± 2.63 | Number of REM bouts (ZT24, 30 mg/kg ip): 2.38 ± 0.98 | Number of W bouts (ZT24, 30 mg/kg ip): 12.00 ± 2.70 | REM bout duration (ZT24, 30 mg/kg ip): 0.98 ± 0.15 | W bout duration (ZT24, 30 mg/kg ip): 4.32 ± 1.06 | NR bout duration (ZT24, 100 mg/kg ip): 1.14 ± 0.08 | Number of NR bouts (ZT24, 100 mg/kg ip): 19.88 ± 1.14 | Number of REM bouts (ZT24, 100 mg/kg ip): 5.25 ± 1.08*^+ | Number of W bouts (ZT24, 100 mg/kg ip): 15.88 ± 1.14 | REM bout duration (ZT24, 100 mg/kg ip): 1.16 ± 0.14^+ | W bout duration (ZT24, 100 mg/kg ip): 1.92 ± 0.34 | NR bout duration (ZT24, almorexant 10 mg/kg ip): 1.14 ± 0.14 | Number of NR bouts (ZT24, almorexant 10 mg/kg ip): 15.25 ± 2.30 | Number of REM bouts (ZT24, almorexant 10 mg/kg ip): 3.25 ± 0.94 | Number of W bouts (ZT24, almorexant 10 mg/kg ip): 12.00 ± 2.10 | REM bout duration (ZT24, almorexant 10 mg/kg ip): 1.02 ± 0.21^+ | W bout duration (ZT24, almorexant 10 mg/kg ip): 4.00 ± 1.17 | REM bout duration (in words) (first hour after treatment): significantly increased REM bout duration | Tcore (in words) (high concentration tested, across 6 h): decreased Tcore | REM bouts compared to vehicle (highest dose (100 mg/kg), latter half of the dark period): 2 to 3 fold | latency to REM sleep (in words) (only 30 mg/kg ip at ZT19, vs vehicle): decreased latency to REM sleep
